Drawing on patent publication US6200993A, “Heterosubstituted pyridine derivatives as PDE4 inhibitors” (Merck Frosst Canada & Co., priority 2000, dated 2001), this text covers IC50 for five compounds.

pIC50: −log10 of the molar value.

T1 sequence (P27815 248-886 limits assumed): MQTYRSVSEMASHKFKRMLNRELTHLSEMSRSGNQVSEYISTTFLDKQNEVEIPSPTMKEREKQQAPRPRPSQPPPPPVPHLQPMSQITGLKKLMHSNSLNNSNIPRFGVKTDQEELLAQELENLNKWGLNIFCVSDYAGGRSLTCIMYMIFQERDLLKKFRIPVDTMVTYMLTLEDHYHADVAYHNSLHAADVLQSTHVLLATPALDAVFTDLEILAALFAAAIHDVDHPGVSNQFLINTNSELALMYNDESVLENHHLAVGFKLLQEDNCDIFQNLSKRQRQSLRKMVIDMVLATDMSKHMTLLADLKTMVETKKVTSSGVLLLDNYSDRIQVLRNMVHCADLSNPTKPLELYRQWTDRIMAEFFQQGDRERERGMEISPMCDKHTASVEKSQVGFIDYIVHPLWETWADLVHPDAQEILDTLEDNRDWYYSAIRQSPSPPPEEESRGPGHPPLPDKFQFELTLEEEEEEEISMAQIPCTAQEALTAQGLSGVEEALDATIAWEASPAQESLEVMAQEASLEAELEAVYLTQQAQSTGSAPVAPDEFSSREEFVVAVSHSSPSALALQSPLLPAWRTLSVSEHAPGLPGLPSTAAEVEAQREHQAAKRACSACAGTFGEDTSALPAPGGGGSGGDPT

This test concerns the target T1, GST-Met 248 PDE 4a (purified GST fusion protein of the human recombinant phosphodiesterase IVa (met-248)) (Homo sapiens, UniProt P27815).
T1 construct: phosphodiesterase IVa (met-248); made in house; host or cells: Sf-9 insect cells (baculovirus)
The test can be described thus: SPA Based PDE Activity Assay (hydrolysis of cAMP to AMP). Format: biochemical. As to conditions: 100 nM cAMP; baculovirus/Sf-9 expressed enzyme; ten point titration. The procedure:
SPA Based PDE Activity Assay Protocol
Compounds which inhibit the hydrolysis of cAMP to AMP by the type-IV cAMP-specific phosphodiesterases were screened in 96-well plate format as follows:
In a 96 well-plate at 30° C. was added the test compound (dissolved in 2 μl DMSO), […] of substrate buffer containing [2,8-^3 H] adenosine 3',5'-cyclic phosphate (cAMP, 100 nM to 50 μM), 10 mM MgCl2, 1 mM EDTA, 50 mM Tris, pH 7.5. The reaction was initiated by the addition of […] of human recombinant PDE-IV (the amount was controlled so that ~10% product was formed in 10 min.). The reaction was stopped after 10 min. by the addition of 1 mg of PDE-SPA beads (Amersham). The product AMP generated was quantified on a Microbeta 96-well plate counter. The signal in the absence of enzyme was defined as the background. 100% activity was defined as the signal detected in the presence of enzyme and DMSO with the background subtracted. Percentage of inhibition was calculated accordingly. IC50 value was approximated with a non-linear regression fit using the standard 4-parameter/multiple binding sites equation from a ten point titration.
IC50 values shown in Table 7 were determined with 100 nM cAMP using the purified GST fusion protein of the human recombinant phosphodiesterase IVa (met-248) produced from a baculovirus/Sf-9 expression system.
The term pIC50 denotes the negative decadic logarithm of the IC50, by convention in mol/L. `FC(F)Oc1ccc(C(Cc2ccncc2)c2ccc(NCc3ccccc3)nc2)cc1OC(F)F` (racemic) [Example 1, 4-{2-[3,4-Bis(difluoromethoxy)phenyl]-2-[6-(benzylamino)3-pyridyl]ethyl}pyridine]: the pIC50 is 9.12. Regarding `CC(C)(Nc1ccc(C(Cc2cc[n+]([O-])cc2)c2ccc(OC(F)F)c(OC(F)F)c2)cn1)c1ccccc1` (racemic) [Example 11, 4-{2-[3,4-Bis(difluoromethoxy)phenyl]-2-[6-(1-methyl-1-phenylethylamino)3-pyridyl]ethyl}pyridine-N-oxide], the pIC50 was 8.79.

As to `CN(Cc1ccccc1)c1ccc(C(Cc2ccncc2)c2ccc(OC(F)F)c(OC(F)F)c2)cn1` (racemic) [Example 54, 4-{2-[3,4-BIS(DIFLUOROMETHOXY)PHENYL]-2-[6-(N-METHYL-N-BENZYLAMINO)3-PYRIDYL]ETHYL}PYRIDINE], the negative logarithm of the IC50 (pIC50) was 8.55. The result for `COc1ccc(N(C)c2ccc(C(Cc3cc[n+]([O-])cc3)c3ccc(OC(F)F)c(OC(F)F)c3)cn2)cc1` (racemic) [Example 69, 4-{2-[3,4-Bis(difluoromethoxy)phenyl]-2-[6-(N-methyl-N-4-methoxyphenylamino)3-pyridyl]ethyl}pyridine-N-oxide] reads 8.51; that for `O=C(c1ccc(F)cc1)N(C(=O)c1ccc(F)cc1)c1ccc(C(Cc2cc[n+]([O-])cc2)c2ccc(OC(F)F)c(OC(F)F)c2)cn1` (single isomer, unassigned; enantiomer-2) [Example 99, (ENANTIOMER-2)-4-{2-[3,4-BIS(DIFLUOROMETHOXY)PHENYL]-2-{6-[N,N-DI(4-FLUOROBENZAMIDE)]3-PYRIDYL}ETHYL}PYRIDINE-N-OXIDE], 9.08.
